Measurements reported in US20240173432A1, “Compositions and Methods for Treatment of Myotonic Dystrophy Type 1 with CRISPR/SluCas9” (Vertex Pharmaceuticals Incorporated, priority 2021, published 2024).

Tests used:
[1] = tested on: CUG foci in primary DM1 patient myoblasts; experiment: Dual-cut screening: FISH staining of CUG RNA foci; type: cell-based, human; conditions: sgRNA pair, primary DM1 patient myoblasts; for % of CUG foci free nuclei (DNA-PKi): 3 μM DNA-PKi Compound 6 for 48 hours; for % of CUG foci free nuclei (Vehicle): vehicle (DMSO)
Procedure, shortened: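 SluCas9 RNPs (protein:sgRNA 1:3; 20 pmol SluCas9 + 60 pmol sgRNA per guide, paired 1:1) nucleofected into primary DM1 patient myoblasts, then DMSO or 3 μM DNA-PKi Compound 6 for 48 h. At 72 h post-nucleofection cells fixed, FISH-stained with Cy3-PNA(CAG)5 probe plus anti-MBNL1 and Hoechst; % CUG foci-free nuclei by high-content confocal imaging.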

[2] = tested on: CTG repeat in the 3′ UTR of human DMPK gene; experiment: Dual-cut screening: CTG repeat excision efficiency by loss-of-signal ddPCR; type: cell-based; conditions: sgRNA pair, primary DM1 patient myoblasts; for Excision efficiency (by ddPCR): 3 μM DNA-PKi Compound 6 for 48 hours; for Excision efficiency by ddPCR (Vehicle): vehicle (DMSO)
Procedure: RNPs were assembled with recombinant SluCas9 protein and chemically modified sgRNAs at a ratio of 1:3 (protein:sgRNA). For SINGLE-cut screening, RNP complexes were assembled with 30 pmol of SluCas9 and 90 pmol of sgRNA in P5 Primary Cell Nucleofector Solution (Lonza). After incubation at room temperature for 20 minutes, 10 μL of RNP complex were mixed with two hundred thousand of primary myoblasts resuspended in 10 μL of P5 Nucleofector Solution. For DOUBLE-cut screening, RNP complexes were first assembled for individual sgRNAs with 20 pmol of SluCas9 protein and 60 pmol of sgRNAs in 5 μL of P5 Nucleofector Solution. After incubation at room temperature for 20 minutes, the two RNP complexes (one for upstream sgRNA and one for downstream sgRNA) were mixed at 1:1 ratio and then further mixed with two hundred thousand of primary myoblasts resuspended in 10 μL of P5 Nucleofector Solution.
The Nucleofector 96-well Shuttle System (Lonza) was used to deliver the SluCa9/sgRNA RNPs into primary DM1 patient myoblasts using the nucleofection program CM138. Following nucleofection, myoblasts from each well of nucleofection shuttle were split into six wells of the 96-well cell culture plate (Greiner, 655090) coated with matrigel. The first three wells were treated with DMSO for 48 hrs before changing to fresh myoblast growth medium, and the other three wells were treated with 3 μM of DNA-PKi Compound 6 for 48 hrs before changing to fresh myoblast growth medium. 72 hrs post nucleofection, two wells of DMSO-treated myoblasts and two wells of DNA-PKi-treated myoblasts from each nucleofection were harvested for genomic DNA extraction using the Kingfisher Flex purification system (Thermal Fisher), whereas one well of DMSO-treated myoblasts and one well of DNA-PKi-treated myoblasts were stained for RNA foci by FISH staining.
The primers and probes of ddPCR are designed using the online primer design software Primer3Plus (http://www.bioinformatics.nl/cgi-bin/primer3plus/primer3plus.cgi). In some embodiments, two target primers/probe sets were used to detect CTG repeat excision, and a reference primers/probe set were used to amplify a region located in Exon 1 of human DMPK gene and to serve as a reference control for the target sets. The 24 μL of ddPCR reaction consists of 12 μL of Supermix for Probes (no dUTP) (Bio-Rad Laboratories), 1 μL of Reference primers mix (21.6 μM), 1 μL of Reference probe (6 μM), 1 μL of Target primers mix (21.6 μM), 1 μL of Target probe (6 μM), and 8 μL of sample genomic DNA. Droplets were generated using probe oil with the QX200 Droplet Generator (Bio-Rad Laboratories). Droplets were transferred to a 96-well PCR plate, sealed and cycled in a C1000 deep well Thermocycler (Bio-Rad Laboratories) under the following cycling protocol: 1 cycle at 95° C. for 10 min; 40 cycles of 94° C. for 30 see, and 58° C. for 1 min; 1 cycle at 98° C. for 10 min (for enzyme inactivation). The cycled plate was then transferred and read in the FAM and HEX channels using the Bio-Rad QX200 Droplet Reader (Bio-Rad Laboratories). ddPCR analysis is performed with the Bio-Rad QuantaSoft Pro Software.
To assess the efficiency of SluCas9 sgRNA pairs for inducing CTG repeat excision, Dual-cut screening was performed in which individual SluCas9 sgRNAs and recombinant SluCas9 protein were assembled into ribonucleoprotein (RNP) and delivered into primary DM1 patient myoblasts. Nucleofected myoblasts were treated with either DMSO (vehicle) or 3 μM of DNA-dependent Protein Kinase Inhibitor (DNA-PKi) Compound 6 for 48 hours. 72 hours post-nucleofection, myoblasts were subjected to either genomic DNA isolation or RNA foci staining by fluorescence in situ hybridization (FISH).
CRISPR repeat excision efficiency was assessed for each of the 88 pairs (FIG. 8A-B and Table 5). CTG repeat excision efficiency percentages are shown for vehicle (DMSO; white bars) and with DNA-PKi (black bars) (FIG. 8B and Table 5).

Row | Substance | % of CUG foci free nuclei (DNA-PKi) [1] [%] | % of CUG foci free nuclei (Vehicle) [1] [%] | Excision efficiency (by ddPCR) [2] | Excision efficiency by ddPCR (Vehicle) [2]
1 | SluU21 + SluD18 (guide 1 GCTCGGAGCGGTTGTGAACTGG; guide 2 TGGAGGATGGAACACGGACGGC; guide RNA; listed as DNA, chemistry not fully specified) | 89.21 | 54.26 | 65.52 | 45.61
2 | SluU21 + SluD32 (guide 1 GCTCGGAGCGGTTGTGAACTGG; guide 2 CTTGTGCATGACGCCCTGCTCT; guide RNA; listed as DNA, chemistry not fully specified) | 88.76 | 52.71 | 70.09 | 41.94
3 | SluU21 + SluD34 (guide 1 GCTCGGAGCGGTTGTGAACTGG; guide 2 CGCGCCAGACGCTCCCCAGAGC; guide RNA; listed as DNA, chemistry not fully specified) | 88.43 | 56.01 | 61.75 | 42.16
4 | SluU21 + SluD48 (guide 1 GCTCGGAGCGGTTGTGAACTGG; guide 2 GAGAGCAGCGCAAGTGAGGAGG; guide RNA; listed as DNA, chemistry not fully specified) | 86.36 | 51.76 | 59.19 | 36.66
5 | SluU21 + SluD56 (guide 1 GCTCGGAGCGGTTGTGAACTGG; guide 2 CCAGCCGGCTCCGCCCGCTTCG; guide RNA; listed as DNA, chemistry not fully specified) | 85.39 | 31.9 | 59.97 | 25.94
6 | SluU21 + SluD68 (guide 1 GCTCGGAGCGGTTGTGAACTGG; guide 2 CCTGTAGCCTGTCAGCGAGTCG; guide RNA; listed as DNA, chemistry not fully specified) | 87.57 | 51.5 | 58.7 | 35.67
7 | SluU21 + SluD73 (guide 1 GCTCGGAGCGGTTGTGAACTGG; guide 2 CCAAAACGTGGATTGGGGTTGT; guide RNA; listed as DNA, chemistry not fully specified) | 88.18 | 51.12 | 61.57 | 36.17
8 | SluU21 + SluD83 (guide 1 GCTCGGAGCGGTTGTGAACTGG; guide 2 GTGGGGACAGACAATAAATACC; guide RNA; listed as DNA, chemistry not fully specified) | 89.23 | 51.65 | 63.44 | 37.42
9 | SluU21 + SluD100 (guide 1 GCTCGGAGCGGTTGTGAACTGG; guide 2 GTCCAGAGCTTTGGGCAGATGG; guide RNA; listed as DNA, chemistry not fully specified) | 87.7 | 48.33 | 63.99 | 36.68
10 | SluU59 + SluD32 (guide 1 CGCGGCCGGCGAACGGGGCTCG; guide 2 CTTGTGCATGACGCCCTGCTCT; guide RNA; listed as DNA, chemistry not fully specified) | 91.19 | 69.23 | 83.32 | 57.23
11 | SluU59 + SluD34 (guide 1 CGCGGCCGGCGAACGGGGCTCG; guide 2 CGCGCCAGACGCTCCCCAGAGC; guide RNA; listed as DNA, chemistry not fully specified) | 89.01 | 76.47 | 71.96 | 55.22
12 | SluU59 + SluD48 (guide 1 CGCGGCCGGCGAACGGGGCTCG; guide 2 GAGAGCAGCGCAAGTGAGGAGG; guide RNA; listed as DNA, chemistry not fully specified) | 87.28 | 62.15 | 65.89 | 47.17
13 | SluU59 + SluD56 (guide 1 CGCGGCCGGCGAACGGGGCTCG; guide 2 CCAGCCGGCTCCGCCCGCTTCG; guide RNA; listed as DNA, chemistry not fully specified) | 84.48 | 46.4 | 55.14 | 35.6
14 | SluU59 + SluD68 (guide 1 CGCGGCCGGCGAACGGGGCTCG; guide 2 CCTGTAGCCTGTCAGCGAGTCG; guide RNA; listed as DNA, chemistry not fully specified) | 89.37 | 62.8125 | 65.42 | 58.24
15 | SluU59 + SluD73 (guide 1 CGCGGCCGGCGAACGGGGCTCG; guide 2 CCAAAACGTGGATTGGGGTTGT; guide RNA; listed as DNA, chemistry not fully specified) | 87.85 | 59.22 | 64.95 | 42.14
16 | SluU59 + SluD83 (guide 1 CGCGGCCGGCGAACGGGGCTCG; guide 2 GTGGGGACAGACAATAAATACC; guide RNA; listed as DNA, chemistry not fully specified) | 90.49 | 64.61 | 64.95 | 49.18
17 | SluU59 + SluD100 (guide 1 CGCGGCCGGCGAACGGGGCTCG; guide 2 GTCCAGAGCTTTGGGCAGATGG; guide RNA; listed as DNA, chemistry not fully specified) | 90.09 | 62.45 | 68.69 | 37.61
18 | SluU62 + SluD32 (guide 1 AGGACCCTTCGAGCCCCGTTCG; guide 2 CTTGTGCATGACGCCCTGCTCT; guide RNA; listed as DNA, chemistry not fully specified) | 88.75 | 55.63 | 79.91 | 50.19
19 | SluU62 + SluD34 (guide 1 AGGACCCTTCGAGCCCCGTTCG; guide 2 CGCGCCAGACGCTCCCCAGAGC; guide RNA; listed as DNA, chemistry not fully specified) | 88.29 | 64.71 | 64.95 | 48.18
